This is an account of results in PubChem BioAssay AID2060908 (Molecular Pharmacology Branch, DTP, NCI, 2025).

Values joined by “and” are separate entries in the source; they are usually repeats but may differ in a detail not shown here. Identical values can stand only once.

This assay has as its system 186277-243-T-J2-PDC complex spheroids, viability. Description: Anticancer human tumor 186277-243-T-J2-PDC patient-derived colon adenocarcinoma cell line growth inhibition [RAS]. The settings on record: for viability, T/C: stronger effect = lower value. The text has this:
RAS pathway inhibitors in Combinations in Complex Spheroids
A high-throughput screen of multi-cell type tumor spheroids was designed to identify active combinations of RAS pathway inhibitors and targeted small molecules. Complex spheroids include a stromal component modeled by human endothelial cells (HUVEC) and fibroblasts modeled by human mesenchymal stem cells (MSCs). The concentration ranges selected for each drug and investigational agent were based upon clinically achievable concentrations if the clinical Cmax of the agent was known.
Compounds. The drugs and investigational agents: abemaciclib (NSC768073), cobimetinib (NSC768068), divarasib (GDC6063, NSC841802), docetaxel (NSC628503), GDC-1971 (RLY-1971, NSC841576), gemcitabine (NSC613327), inavolisib (NSC800729), ipatasertib (NSC767898), KB-0742 (NSC834161), MRTX-1133 (NSC836407), osimertinib (NSC779217), RMC-4630 (NSC839698), RMC-6236 (NSC851965), RMC-6291 (NSC852671), Ro-3306 (NSC812927), sapanisertib (NSC764658), SN-38 (NSC673596), staurosporine (NSC755774), SY5609 (NSC837396), and tovorafenib (DAY101, NSC766906), were obtained from the National Cancer Institute (NCI) Developmental Therapeutics Program Chemical Repository. The FDA-approved anticancer drug set is available from the NCI Developmental Therapeutics Program. […] The stock solutions were prepared in dimethyl sulfoxide (DMSO, Sigma-Aldrich, St. Louis, MO, cat. D2650) at 800-fold the tested concentration and stored at -70 degrees C prior to their use. All drugs and investigational agents were tested over a range starting from a high concentration at or near the clinical Cmax and decreasing in half-log increments. If the clinical Cmax for an agent had not been determined, the highest concentration tested was 10 microM.
Cell Culture. All cells were maintained in an incubator at 37 degrees C and 5% CO2 with 95% humidity. The PDC lines were cultured according to standard operating procedures established by the NCI PDMR. All PDCs were thawed and cultured in Matrigel-coated flasks prepared with a working solution of 1X Ham's F-12 nutrient mix, without supplementation (Invitrogen, Waltham, MA, cat. 11765054), 100 U/mL penicillin-streptomycin (Invitrogen, cat. 15140122), and 2.5% Matrigel (Corning Inc., Corning, NY, cat. 354248) for the first three passages. The 362531-283-R-J2-PDC and 782815-120-R-J1-PDC lines were cultured in 6C/Colon 1B media, which includes advanced DMEM/F-12 (Thermo Fisher Scientific, cat. 12634028), 10 mM HEPES (Thermo Fisher Scientific, cat. 15630080), 1X GlutaMAX supplement (Thermo Fisher Scientific, cat. 35050061), 0.1 mg/mL primocin (InvivoGen, San Diego, CA, cat. ant-pm-2), 10% defined fetal bovine serum, heat inactivated (HyClone Laboratories Inc., Logan, UT, cat. SH30070.03HI), 50% L-WRN conditioned media (ATCC, cat. CRL-3276), 1.25 mM N-Acetyl-L-cysteine (Sigma-Aldrich, cat. A9165), 10 mM nicotinamide (Sigma-Aldrich, cat. N0636), 1X B-27 supplement (Thermo Fisher Scientific, cat. 17504044), 1X N-2 supplement (Thermo Fisher Scientific, cat. 17502048), 50 ng/mL human EGF (Thermo Fisher Scientific, cat. PHG0311), and 10 microM Y-27632 dihydrochloride (Tocris Bioscience, cat. 1254). The K12877-001-R-J1-PDC line was cultured in 6I media, which includes all 6C/Colon 1B media plus 10 ng/mL human FGF-10 (PeproTech, cat. 100-26), 1 ng/mL human FGF-2 (PeproTech, cat. 100-18B), 1 µM prostaglandin E2 (Tocris Bioscience, cat. 2296), […] hydrocortisone (Sigma-Aldrich, cat. H4001), and […] bovine insulin (Sigma-Aldrich, cat. I6634). The K86415-001-R-J1-PDC line was cultured in 6D media, which includes all 6C/Colon 1B media components minus the L-WRN conditioned media. The 485176-168-R4-J1-PDC was cultured in PANC media, which includes all 6C/Colon 1B media plus 100 ng/mL human FGF-10 (PeproTech, cat. 100-26), 500 nM SB-431542 (Selleckchem, cat. S1067), and 10 nM gastrin (Tocris Bioscience, cat. 3006). […]

[1] abbreviates: compound alone, run of 06/10/2024.
The mark [2] stands for this setting: compound alone, run of 05/20/2024.
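Note: spheroids exposed to compounds for 7 days before viability read.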

Consider `C#Cc1c(F)ccc2cc(O)cc(-c3ncc4c(N5CC6CCC(C5)N6)nc(OCC56CCCN5CC(F)C6)nc4c3F)c12` (configuration not stated), for which the viability, T/C (commonly the result in the treated group divided by that in the control group, in per cent) (compound 0.0316 µM) is 70% [middle of 8 runs]; the viability, T/C (compound 0.1 µM) is 62.6% [middle of 8 runs]; the viability, T/C (compound 0.316 µM) was 32.4% [middle of 8 runs]; the viability, T/C (compound 1 µM) is 18.4% [middle of 8 runs]; the viability, T/C (compound 3.16 µM) is 12.2% [middle of 8 runs]; the viability, T/C (compound 10 µM) is 10.1% [middle of 8 runs]. Moreover, the IC50 (as a rule, the point on the concentration scale where inhibition reaches its midpoint) under setting [1] is 160 nM [middle of 8 runs].

Regarding `C=CC(=O)N1CCN(c2nc(OCC3CCCN3C)nc3c(F)c(-c4nc(N)cc(C)c4C(F)(F)F)c(Cl)cc23)C(C)C1` (configuration not stated), under “compound 0.0316 µM”, the viability, T/C is 100% [middle of 12 runs]. Further, the IC50 under setting [1] is > 1000 nM and the IC50 (curve of compound) is > 1000 nM.

On to `C=CC(=O)Nc1cc(Nc2nccc(-c3cn(C)c4ccccc34)n2)c(OC)cc1N(C)CCN(C)C`, for which the viability, T/C was 91.2% [middle of 4 runs] (compound 0.00316 µM), 93.3% [middle of 4 runs] (compound 0.0316 µM), 99.4% [middle of 4 runs] (compound 0.1 µM) and 94.8% [middle of 4 runs] (compound 0.316 µM). In addition, the IC50 (curve of compound) is > 1000 nM.

With `CC(C)NCC(C(=O)N1CCN(c2ncnc3c2C(C)CC3O)CC1)c1ccc(Cl)cc1` (configuration not stated), the viability, T/C (compound 0.0316 µM) is 86% [middle of 4 runs]; the viability, T/C (compound 0.1 µM) is 89.2% [middle of 4 runs]; the viability, T/C (compound 0.316 µM) was 97.7% [middle of 4 runs]; the viability, T/C (compound 1 µM) is 68.8% [middle of 4 runs]; the viability, T/C (compound 3.16 µM) is 48% [middle of 4 runs]; the viability, T/C (compound 10 µM) is 32.2% [middle of 4 runs]. For the same molecule, where the note is “curve of compound”, the IC50 is 2.59 µM [middle of 4 runs].

Turning to `CC(C)n1nc(-c2ccc3oc(N)nc3c2)c2c(N)ncnc21`, the viability, T/C (compound 0.000316 µM) is 107% [middle of 4 runs]; the viability, T/C (compound 0.001 µM) is 96.7% [middle of 4 runs]; the viability, T/C (compound 0.00316 µM) is 101% and 98% and 107% (2×); the viability, T/C (compound 0.01 µM) was 92.9% [middle of 4 runs]; the viability, T/C (compound 0.1 µM) is 47.7% [middle of 4 runs].

Take `CC(Nc1ccc2c(c1)OCCn1cc(N3C(=O)OCC3C(F)F)nc1-2)C(N)=O` (configuration not stated): the viability, T/C runs as follows: (compound 0.0316 µM) 102% (2×) and 76.1% and 98.5%; (compound 0.1 µM) 91.8% [middle of 4 runs]; (compound 0.316 µM) 69.5% [middle of 4 runs]; (compound 1 µM) 51.2% [middle of 4 runs]; (compound 10 µM) 34.3% [middle of 4 runs].

In the case of `CC1(C)CCC(Nc2ncc(C(F)(F)F)c(-c3c[nH]c4c(P(C)(C)=O)c(C#N)ccc34)n2)CN1` (configuration not stated), the viability, T/C (compound 0.000949 µM) was 89.9% [middle of 4 runs]; the viability, T/C (compound 0.003 µM) was 102% and 101% (2×) and 97%; the viability, T/C (compound 0.00949 µM) is 99.2% [middle of 4 runs]; the viability, T/C (compound 0.0949 µM) is 60.8% and 56.4% (2×) and 71.4%; the viability, T/C (compound 0.3 µM) was 63.9% [middle of 4 runs]. Besides, the IC50 (curve of compound) was > 300 nM and 287 nM and 197 nM.

With `CC1(O)CCCC1n1c(=O)c(C(F)F)cc2cnc(NC3CCN(S(C)(=O)=O)CC3)nc21` (configuration not stated), the viability, T/C (compound 0.0316 µM) was 108% [middle of 4 runs]; the viability, T/C (compound 0.1 µM) is 114% [middle of 4 runs]; the viability, T/C (compound 3.16 µM) is 83.6% [middle of 4 runs]; the viability, T/C (compound 10 µM) was 2.71% [middle of 4 runs]. Moreover, under “curve of compound”, the IC50 is 4.81 µM [middle of 4 runs].

With `CCN1CCN(Cc2ccc(Nc3ncc(F)c(-c4cc(F)c5nc(C)n(C(C)C)c5c4)n3)nc2)CC1`, the viability, T/C (compound 0.01 µM) was 102% (3×) and 98.7%; the viability, T/C (compound 0.1 µM) was 127% [middle of 4 runs]. Moreover, the IC50 (curve of compound) was > 1000 nM.

As to `CCc1c2c(nc3ccc(O)cc13)-c1cc3c(c(=O)n1C2)COC(=O)[C@]3(O)CC`, the viability, T/C is, setting by setting: (compound 0.00949 µM) 71.8% [middle of 4 runs]; (compound 0.03 µM) 47.5% [middle of 4 runs]; (compound 0.0949 µM) 18.6% [middle of 4 runs]; (compound 0.3 µM) 15.9% [middle of 4 runs].

Consider `CCn1c(-c2cc(N3CCN(C)CC3)cnc2C(C)OC)c2c3cc(ccc31)-c1csc(n1)CC(NC(=O)C1CC1C)C(=O)N1CCCC(N1)C(=O)OCC(C)(C)C2` (configuration not stated), for which the viability, T/C was 105% [middle of 8 runs] (compound 0.000949 µM); 55.2% [middle of 8 runs] (compound 0.00949 µM); 15.2% [middle of 8 runs] (compound 0.03 µM); 7.7% [middle of 7 runs] (compound 0.0949 µM); 6.43% [middle of 8 runs] (compound 0.3 µM). Further, the IC50 under setting [2] is 10.4 nM [middle of 8 runs].

Consider `CCn1c(-c2cccnc2C(C)OC)c2c3cc(ccc31)N1CCOC(CC(NC(=O)C(C(C)C)N(C)C(=O)C3(F)CCN(C(=O)C#CC(C)(C)N(C)C)CC3)C(=O)N3CCCC(N3)C(=O)OCC(C)(C)C2)C1` (configuration not stated), for which the viability, T/C was 96.7% [middle of 8 runs] (compound 0.000949 µM), 96.3% [middle of 8 runs] (compound 0.003 µM), 102% [middle of 8 runs] (compound 0.03 µM) and 103% [middle of 8 runs] (compound 0.3 µM). Under setting [2], the half-inhibitory concentration (IC50) was > 300 nM.

Consider `C[C@@H](NC(=O)c1ncnc(N)c1Cl)c1ncc(C(=O)Nc2cc(C(F)(F)F)c(Cl)cn2)s1`, for which the viability, T/C by setting is: (compound 0.0316 µM) 99.8% [middle of 4 runs]; (compound 0.1 µM) 93.7% [middle of 4 runs]; (compound 0.316 µM) 102% [middle of 4 runs]; (compound 1 µM) 91.9% [middle of 4 runs]; (compound 3.16 µM) 104% [middle of 4 runs]; (compound 10 µM) 79.8% [middle of 4 runs]. Also, the IC50 (curve of compound) is > 10000 nM.

`Nc1ccn(C2OC(CO)C(O)C2(F)F)c(=O)n1` (configuration not stated): the viability, T/C (compound 0.00316 µM) is 57.2% [middle of 4 runs]; the viability, T/C (compound 0.01 µM) was 12.7% [middle of 4 runs]; the viability, T/C (compound 0.0316 µM) is 12% [middle of 4 runs]; the viability, T/C (compound 0.1 µM) was 12.9% [middle of 4 runs]; the viability, T/C (compound 0.316 µM) was 10.6% [middle of 4 runs]; the viability, T/C (compound 1 µM) was 12.1% [middle of 4 runs]. Besides, the IC50 (curve of compound) is 3.81 nM [middle of 4 runs].

As to `O=C(c1ccc(F)c(F)c1Nc1ccc(I)cc1F)N1CC(O)([C@@H]2CCCCN2)C1`, the viability, T/C is, setting by setting: (compound 0.00316 µM) 102% [middle of 4 runs]; (compound 0.01 µM) 93.3% [middle of 4 runs]; (compound 0.0316 µM) 94.1% [middle of 4 runs]; (compound 0.1 µM) 39.6% [middle of 4 runs]; (compound 0.316 µM) 9.71% [middle of 4 runs]; (compound 1 µM) 5.17% [middle of 4 runs]. The IC50 (curve of compound) is 79.7 nM [middle of 4 runs].
